Among the data in US20260274799A1, “HETEROCYCLIC DERIVATIVES, COMPOSITIONS AND USES THEREOF” (DANATLAS PHARMACEUTICALS CO., LTD., priority 2023, published 2026) are EC50 and Emax values, retold here.

The target in this test is T1, PPARγ-LBD (UniProt ID: P37231-2) (Homo sapiens, UniProt P37231).
T1 construct: PPARγ-LBD (UniProt ID: P37231-2) was expressed and purified in insect system; made in house
T1 sequence (P37231 238-503 limits assumed): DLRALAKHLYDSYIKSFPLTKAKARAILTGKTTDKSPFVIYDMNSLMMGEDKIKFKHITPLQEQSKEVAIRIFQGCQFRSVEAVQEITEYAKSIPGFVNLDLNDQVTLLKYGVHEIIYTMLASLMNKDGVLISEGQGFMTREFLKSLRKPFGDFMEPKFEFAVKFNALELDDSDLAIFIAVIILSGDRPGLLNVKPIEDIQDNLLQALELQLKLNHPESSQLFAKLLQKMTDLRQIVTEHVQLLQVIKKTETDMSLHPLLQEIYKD
As to the kind of experiment: PPARγ-SMRT recruitment assay (TR-FRET). The test is classed as biochemical. To be noted: for EC50: TR-FRET, SMRT peptide recruitment to PPARγ-LBD, 120 min pre-incubation; for Emax: 1 h, max value of % Activation, high control 10 uM control compound, low control 1% DMSO, read-out: Top %. The procedure: PPARγ TR-FRET assay was initiated to evaluate potential activatory effect of the compounds of the present disclosure for SMRT recruitment to PPARγ protein. PPARγ-LBD (UniProt ID: P37231-2) was expressed and purified in insect system and stored at −80° C. in aliquots. Biotinylated SMRT peptide was synthesized (Biotin-[…]). 5 μL protein solution mixture consisting of 10 nM PPARγ-LBD and 2 nM Anti-His Eu (Cisbio, 61HISKLA) in assay buffer (25 mM HEPES pH7.4, 25 mM KCl, 1 mM EDTA, 0.01% BSA, 0.01% Tween-20, 1 mM TCEP) was added to 384-well plates containing duplicate 10-point dose response titration of compounds in 5 μL assay buffer (1% f.c. DMSO(v/v)). After 120 min pre-incubation at room temperature, 5 μL peptide solution mixture consisting of 50 nM Biotin-SMRT peptide and 25 nM Streptavidin-XL665 (Cisbio, 610SAXLA) added to plates. Plates were incubated for 60 min. and read in CLARIOstar Plus plate reader with Ex/Em 620 nm/[…]. Average TR-FRET ratio of high control (Wells with 10 uM control compound) was calculated as High Control (HC). Average TR-FRET ratio of low control (Wells with 1% DMSO) was calculated as Low control (LC). For one compound, top % is the max value of % Activation.
EC50 values were determined by fitting the data to the standard 4 parameters with Hill Slope using GraphPad Prism software. […] ND: No Determine.
(In general: In TR-FRET formats the signal depends on donor and acceptor labels being close together.)

The structures appear in SMILES notation. A value given as a limit tells only on which side of the number the result lay.

The term EC50 denotes the concentration that produces a half-maximal response. The low end stands for higher potency in that assay, the high end for lower potency in that assay.

Molecule `CC(C)(C#Cc1c(F)cc2[nH]c(-c3cc(C#N)ccc3S(C)(=O)=O)cc(=O)c2c1F)S(C)(=O)=O` [Example 48, 3-(5,7-Difluoro-6-(3-methyl-3-(methylsulfonyl)but-1-yn-1-yl)-4-oxo-1,4-dihydroquinolin-2-yl)-4-(methylsulfonyl)benzonitrile] returned an EC50 of less than 100 nM.

Take `CC(C)(N)C#Cc1c(F)cc2[nH]c(-c3cc(C#N)ccc3S(C)(=O)=O)cc(=O)c2c1F` [Example 8, 3-(6-(3-Amino-3-methylbut-1-yn-1-yl)-5,7-difluoro-4-oxo-1,4-dihydroquinolin-2-yl)-4-(methylsulfonyl)benzonitrile]: the Emax is 208% and the EC50 is less than 100 nM.

For the molecule `Cc1ncccc1C#Cc1c(F)cc2[nH]c(-c3cc(C#N)ccc3S(C)(=O)=O)cc(=O)c2c1F` [Example 29, 3-(5,7-Difluoro-6-((2-methylpyridin-3-yl)ethynyl)-4-oxo-1,4-dihydroquinolin-2-yl)-4-(methylsulfonyl)benzonitrile], the Emax came to 357% and the EC50 was less than 100 nM.

In the case of `CS(=O)(=O)c1ccc(C#N)cc1-c1cc(=O)c2c(F)c(C#Cc3ccccc3C(F)(F)F)c(F)cc2[nH]1` [Example 44, 3-(5,7-Difluoro-4-oxo-6-((2-(trifluoromethyl)phenyl)ethynyl)-1,4-dihydroquinolin-2-yl)-4-(methylsulfonyl)benzonitrile], the Emax was found to be 286% and the EC50 was less than 100 nM.

On to `C[C@H](O)C#Cc1c(F)cc2[nH]c(-c3cc(C#N)ccc3S(C)(=O)=O)cc(=O)c2c1F` [Example 5, (S)-3-(5,7-Difluoro-6-(3-hydroxybut-1-yn-1-yl)-4-oxo-1,4-dihydroquinolin-2-yl)-4-(methylsulfonyl)benzonitrile], for which the Emax was 367% and the EC50 was less than 100 nM.

The molecule `COc1cccnc1C#Cc1c(F)cc2[nH]c(-c3cc(C#N)ccc3S(C)(=O)=O)cc(=O)c2c1F` [Example 38, 3-(5,7-Difluoro-6-((3-methoxypyridin-2-yl)ethynyl)-4-oxo-1,4-dihydroquinolin-2-yl)-4-(methylsulfonyl)benzonitrile] gave an EC50 of less than 100 nM.

Turning to `CC(C)C#Cc1c(F)cc2[nH]c(-c3cc(C#N)ccc3S(C)(=O)=O)cc(=O)c2c1F` [Example 21, 3-(5,7-Difluoro-6-(3-methylbut-1-yn-1-yl)-4-oxo-1,4-dihydroquinolin-2-yl)-4-(methylsulfonyl)benzonitrile], the EC50 is less than 100 nM.
